# Data reported in PMC6616564, “Identification of ryuvidine as a KDM5A inhibitor” (Scientific Reports, 2019).
# Like-named read-outs stand apart in the source and are kept apart here.
# Assays:
# Type in all cases: biochemical
# [1] = target: T1, KDM5A (His-tagged KDM5A 1-797) (Homo sapiens, UniProt P29375); assay: AlphaScreen H3K4me3 demethylation
# T1 construct: residues 1-797, C-terminally truncated, N-terminal His6 tag, Sf9 baculovirus, HisTrap purified
# T1 sequence (P29375 1-797): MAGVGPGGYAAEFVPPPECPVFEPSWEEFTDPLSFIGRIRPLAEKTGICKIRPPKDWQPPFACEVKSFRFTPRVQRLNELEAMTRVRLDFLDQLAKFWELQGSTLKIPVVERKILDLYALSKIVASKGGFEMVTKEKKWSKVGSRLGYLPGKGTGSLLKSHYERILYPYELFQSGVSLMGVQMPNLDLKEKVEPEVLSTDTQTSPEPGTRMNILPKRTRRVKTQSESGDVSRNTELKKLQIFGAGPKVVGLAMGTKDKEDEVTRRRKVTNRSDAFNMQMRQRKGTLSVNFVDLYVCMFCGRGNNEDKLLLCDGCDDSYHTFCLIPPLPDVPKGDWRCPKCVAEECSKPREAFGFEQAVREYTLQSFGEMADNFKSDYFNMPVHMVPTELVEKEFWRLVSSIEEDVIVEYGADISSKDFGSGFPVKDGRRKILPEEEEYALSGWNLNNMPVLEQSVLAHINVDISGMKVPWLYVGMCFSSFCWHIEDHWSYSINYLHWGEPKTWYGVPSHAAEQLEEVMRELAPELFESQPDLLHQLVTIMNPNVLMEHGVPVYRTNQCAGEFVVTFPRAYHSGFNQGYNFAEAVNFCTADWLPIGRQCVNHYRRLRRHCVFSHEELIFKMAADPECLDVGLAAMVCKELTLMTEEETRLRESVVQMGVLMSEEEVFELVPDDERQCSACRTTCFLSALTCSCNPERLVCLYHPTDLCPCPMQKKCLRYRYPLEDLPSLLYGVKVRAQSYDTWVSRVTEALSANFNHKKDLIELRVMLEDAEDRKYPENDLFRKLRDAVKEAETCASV
# Text: AlphaScreen H3K4me3 demethylation on KDM5A (His-tagged KDM5A 1-797)
# [2] = target: T2, KDM5B (His-tagged KDM5B 1-769) (Homo sapiens, UniProt Q9UGL1); assay: MALDI-TOF MS demethylation assay
# T2 construct: residues 1-769, C-terminally truncated, N-terminal His6 tag, Sf9 baculovirus, HisTrap purified
# T2 sequence (Q9UGL1 1-769): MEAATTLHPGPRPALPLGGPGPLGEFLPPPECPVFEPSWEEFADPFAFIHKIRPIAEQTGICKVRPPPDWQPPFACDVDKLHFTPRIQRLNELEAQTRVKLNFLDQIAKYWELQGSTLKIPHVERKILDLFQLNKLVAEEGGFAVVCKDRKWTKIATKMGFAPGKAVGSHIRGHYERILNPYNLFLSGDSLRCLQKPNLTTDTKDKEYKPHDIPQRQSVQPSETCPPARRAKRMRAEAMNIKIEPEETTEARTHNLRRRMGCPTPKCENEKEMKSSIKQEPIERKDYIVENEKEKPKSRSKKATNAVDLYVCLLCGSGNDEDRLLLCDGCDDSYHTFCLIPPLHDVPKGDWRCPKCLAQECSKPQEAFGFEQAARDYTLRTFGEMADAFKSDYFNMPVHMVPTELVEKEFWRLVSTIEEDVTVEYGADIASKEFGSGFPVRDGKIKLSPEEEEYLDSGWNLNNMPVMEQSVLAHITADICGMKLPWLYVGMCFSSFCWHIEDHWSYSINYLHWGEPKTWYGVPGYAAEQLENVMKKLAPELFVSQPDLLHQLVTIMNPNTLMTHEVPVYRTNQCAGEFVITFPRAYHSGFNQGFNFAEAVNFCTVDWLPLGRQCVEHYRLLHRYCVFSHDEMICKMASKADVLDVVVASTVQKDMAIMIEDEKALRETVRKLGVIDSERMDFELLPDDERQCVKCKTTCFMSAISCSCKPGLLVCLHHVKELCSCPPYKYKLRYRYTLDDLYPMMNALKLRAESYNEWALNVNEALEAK
# Text: MALDI-TOF MS demethylation assay on KDM5B (His-tagged KDM5B 1-769)
# [3] = target: T3, LSD1 (His-tagged human full-length LSD1) (Homo sapiens, UniProt O60341); assay: MALDI-TOF MS demethylation assay; conditions: no inhibition at 50 μM; 30 μM H3K4me2 peptide, pH 7.5, 37 °C
# T3 construct: gene KDM1A
# Text: MALDI-TOF MS demethylation assay on LSD1 (His-tagged human full-length LSD1)
# [4] = target: T4, LSD2 (His-tagged ΔN25 human LSD2) (Homo sapiens, UniProt Q8NB78); assay: MALDI-TOF MS demethylation assay; conditions: no inhibition at 50 μM; 10 μM H3K4me2 peptide, pH 8.5, 37 °C
# T4 construct: gene KDM1B
# T4 sequence (Q8NB78 26-822): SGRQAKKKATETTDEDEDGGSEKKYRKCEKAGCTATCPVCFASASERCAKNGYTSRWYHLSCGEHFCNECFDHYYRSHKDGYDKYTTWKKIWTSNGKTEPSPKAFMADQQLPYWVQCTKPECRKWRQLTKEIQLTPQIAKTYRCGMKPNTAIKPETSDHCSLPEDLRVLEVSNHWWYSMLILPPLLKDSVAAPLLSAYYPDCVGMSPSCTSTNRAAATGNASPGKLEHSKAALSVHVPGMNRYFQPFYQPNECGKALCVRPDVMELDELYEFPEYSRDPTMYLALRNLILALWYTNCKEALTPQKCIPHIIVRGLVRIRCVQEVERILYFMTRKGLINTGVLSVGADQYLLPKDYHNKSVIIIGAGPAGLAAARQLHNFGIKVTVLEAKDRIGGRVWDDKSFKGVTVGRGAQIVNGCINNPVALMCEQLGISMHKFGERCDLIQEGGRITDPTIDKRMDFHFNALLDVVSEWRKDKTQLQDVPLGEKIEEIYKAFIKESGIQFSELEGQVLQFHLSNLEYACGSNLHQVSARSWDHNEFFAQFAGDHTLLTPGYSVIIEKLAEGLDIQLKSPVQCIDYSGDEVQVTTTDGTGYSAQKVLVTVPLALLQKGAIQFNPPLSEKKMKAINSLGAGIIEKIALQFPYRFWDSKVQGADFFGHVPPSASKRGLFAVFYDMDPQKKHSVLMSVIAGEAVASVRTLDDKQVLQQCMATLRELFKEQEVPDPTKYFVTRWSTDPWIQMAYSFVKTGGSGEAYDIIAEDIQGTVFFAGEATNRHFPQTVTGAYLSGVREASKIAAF
# Text: MALDI-TOF MS demethylation assay on LSD2 (His-tagged ΔN25 human LSD2)
# [5] = target: T5, KDM5C (His-tagged KDM5C 1-839) (Homo sapiens, UniProt P41229); assay: MALDI-TOF MS demethylation assay
# T5 construct: residues 1-839, C-terminally truncated, N-terminal His6 tag, Sf9 baculovirus, HisTrap purified
# T5 sequence (P41229 1-839): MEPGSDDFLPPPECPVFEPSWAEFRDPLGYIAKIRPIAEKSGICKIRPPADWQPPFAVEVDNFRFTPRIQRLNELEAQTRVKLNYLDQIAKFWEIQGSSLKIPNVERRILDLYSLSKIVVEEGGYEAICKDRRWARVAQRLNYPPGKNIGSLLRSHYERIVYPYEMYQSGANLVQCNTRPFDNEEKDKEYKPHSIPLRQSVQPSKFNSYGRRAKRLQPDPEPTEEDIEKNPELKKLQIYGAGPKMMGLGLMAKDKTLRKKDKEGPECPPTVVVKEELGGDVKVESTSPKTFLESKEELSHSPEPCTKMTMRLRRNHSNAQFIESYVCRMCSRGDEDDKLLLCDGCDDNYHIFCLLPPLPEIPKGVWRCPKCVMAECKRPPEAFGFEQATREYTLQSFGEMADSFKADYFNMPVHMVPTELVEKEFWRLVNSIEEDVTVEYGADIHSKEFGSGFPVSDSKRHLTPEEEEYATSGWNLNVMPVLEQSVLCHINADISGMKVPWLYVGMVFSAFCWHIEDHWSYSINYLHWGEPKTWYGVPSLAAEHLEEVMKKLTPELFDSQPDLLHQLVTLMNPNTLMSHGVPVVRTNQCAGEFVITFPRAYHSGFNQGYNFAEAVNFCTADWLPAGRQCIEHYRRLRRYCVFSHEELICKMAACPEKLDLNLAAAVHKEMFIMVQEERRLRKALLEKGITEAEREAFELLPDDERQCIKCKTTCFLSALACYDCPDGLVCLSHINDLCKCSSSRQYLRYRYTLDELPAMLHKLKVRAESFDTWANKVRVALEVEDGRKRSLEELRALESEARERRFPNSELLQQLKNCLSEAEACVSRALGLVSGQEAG
# Text: MALDI-TOF MS demethylation assay on KDM5C (His-tagged KDM5C 1-839)
IC50 ([1]; read-out: IC50 (μM)^a),SMILES,also measured
1.1 µM,CN(C)c1ccc2nc3ccc(=[N+](C)C)cc-3sc2c1 [Methylene Blue],
5 µM,O=[N+]([O-])c1ccc(O)c2ncccc12 [Nitroxoline],
1.8 µM,Nc1ccc2cc3ccc(N)cc3nc2c1 [Proflavine Hemisulfate],
1.4 µM,Cc1ccc(NC2=CC(=O)c3sc(C)nc3C2=O)cc1 [Ryuvidine],IC50 [2]: 26 ± 10 nM; IC50 [3]: > 50000 nM; IC50 [4]: > 50000 nM; IC50 [5]: 8730 ± 1800 nM

# The next lines start with the compound.
SMILES,IC50 ([1]; read-out: IC50 (μM)^a),also measured
CC1(C)C(=O)N=C2C1=C(O)C(=O)c1ccccc12 [BVT948],2.6 µM,
O=C1C(SCCO)=C(SCCO)C(=O)c2ccccc21 [NSC95397],0.055 µM,
C[CH2][Hg][S]c1ccccc1C(=O)O [Thimerosal],,IC50 [1]: 0.13 µM
Cc1cc2nc3ccc(N(C)C)cc3[s+]c2cc1N [Tolonium Chloride],1.7 µM,
